Results as given in patent publication US6599893B2, “Cephalosporin antibiotics and prodrugs thereof” (Essential Therapeutics, Inc., priority 2000, dated 2003).
In brackets after ≈: the same amount, converted by molar mass. Like-named read-outs stand apart in the source and are kept apart here.

Key:
[1] = system: Staphylococcus aureus Smith (MSSA); assay: Broth microdilution MIC, S. aureus Smith; type: cell-based; settings: for MIC: read-out: MIC S. a. Smith
Experimental: (§1) Compounds were evaluated for antimicrobial activity against a panel of bacterial strains using a broth microdilution assay performed as recommended by the NCCLS (NCCLS (National Committee for Clinical Laboratory Standards). 1993. Methods for dilution antimicrobial susceptibility tests for bacteria that grow aerobically. NCCLS Document M7-A3, 1993. In: NCCLS Antimicrobial Susceptibility Testing, 3rd Ed.)
(§2) The minimum inhibitory concentration (MIC) is defined as the lowest concentration of a compound that prevents the growth of the bacteria.

[2] = system: Staphylococcus aureus COL (MRSA, non-β-lactamase producing); assay: Broth microdilution MIC, S. aureus COL; type: cell-based; settings: for MIC: read-out: MIC S. a. COL
Experimental: as §1, §2

[3] = system: Enterococcus faecium ATCC 35667; assay: Broth microdilution MIC, E. faecium ATCC 35667; type: cell-based
Experimental: as §1, §2

[4] = system: Staphylococcus aureus ATCC 29213 (MSSA); assay: Broth microdilution MIC, S. aureus ATCC 29213; type: cell-based; settings: for MIC: read-out: MIC S. a. 29213
Experimental: as §1, §2

[5] = system: Enterococcus faecalis ATCC 29212; assay: Broth microdilution MIC, E. faecalis ATCC 29212; type: cell-based
Experimental: as §1, §2

[6] = system: S. aureus strain Smith; assay: Experimental infection of mice, ED50; type: in vivo, Swiss-Webster mice; settings: for ED50: Staphylococcus aureus, read-out: ED50, mg/kg (95% C.I.)
Experimental: Staphylococcus aureus strain Smith (ATCC 13709, penicillin-susceptible) or strain 76 (methicillin-resistant) was cultured overnight at 37° C. in brain-heart infusion broth (BHIB). The following morning, a portion of the culture was transferred to fresh BHIB and incubated for an additional 4-5 hours at 37° C. The cells were harvested by centrifugation, washed twice with PBS, and adjusted to the desired inoculum amount. The cell suspension was mixed with an equal volume of sterile 14% hog-gastric mucin (Comber K. R.; Osborne C. D.; Sutherland R.: Comparative effects of amoxicillin and ampicillin in the treatment of experimental mouse infections. Antimicrobial Agents and Chemotherapy 7(2):179-185, 1975). The inoculum was kept in an ice bath until used (preferably in less than one hour).
Male Swiss-Webster mice were challenged intraperitoneally with 0.5 mL of a bacterial suspension of S. aureus strain Smith (LD50). Test compounds were administered subcutaneously in 0.1 mL volumes immediately after inoculation and 2 hours later. […] The total dose associated with 50% survival (ED50) was determined using the probit method (Pasiello, A. P., J. M. Essigmann, and G. N. Wogan.: Rapid and accurate determination of median lethal dose (LD50) and its error with a small computer. J Toxicol. Environ. Health. 3:797-809, 1977).

[7] = system: Staphylococcus aureus 76 (MRSA, β-lactamase producing); assay: Broth microdilution MIC, S. aureus 76; type: cell-based; settings: for MIC: read-out: MIC S. a. 76
Experimental: as §1, §2

[8] = Human serum binding by ultrafiltration; type: in vitro ADME
Experimental: Binding of several representative compounds of this invention in pooled human serum was determined using ultrafiltration. Compounds were incubated in serum for 10 minutes at 37° C. in a shaking water bath. Serum ultrafiltrate was accomplished by centrifugation (Amicon Centrifree) for 20 minutes at 25° C. Compound content in the ultrafiltrate was quantified by HPLC. An ultrafilrate obtained by following the same procedure with no added compound was used as a standard.

[9] = Human serum binding estimated from serum effect on MIC (HSB*); type: in vitro ADME; settings: MIC against S. aureus ATCC 29213 in growth medium vs 1:1 growth medium and human serum
From the text: An estimate of human serum binding (HSB*) was obtained for some compounds using the MIC values against S. aureus ATCC 29213 determined in growth medium (GM) and in a 1:1 mixture of growth medium and human serum (GM+HS):
HSB*=(MICGM+HS−MICGM)/MICGM 100%

[10] = Staphylococcus aureus Smith (MSSA)
[11] = Staphylococcus aureus COL (MRSA, non-β-lactamase producing)
[12] = ATCC35667, Enterococcus faecium ATCC 35667, read-out: MIC E. f. 35667
[13] = Staphylococcus aureus ATCC 29213 (MSSA)
[14] = ATCC29212, Enterococcus faecalis ATCC 29212, read-out: MIC E. f. 29212
[15] = 50% efficacious dose, S. aureus Smith, mice challenged intraperitoneally, compound subcutaneously at 0 and 2 h, total dose, 72 h survival
[16] = Staphylococcus aureus 76 (MRSA, β-lactamase producing)
[17] = pooled human serum, ultrafiltration, 10 minutes at 37° C.
[18] = Enterococcus faecium ATCC 35667
[19] = Enterococcus faecalis ATCC 29212

Structure (SMILES)	MIC [1, 10] [µg/mL]	MIC [2, 11] [µg/mL]	MIC [3, 12] [µg/mL]	MIC [4, 13] [µg/mL]	MIC [5, 14] [µg/mL]	MIC [7, 16] [µg/mL]	MIC S. a. Smith [1, 10] [µg/mL]	MIC S. a. COL [2, 11] [µg/mL]	MIC E. f. 35667 [3, 18] [µg/mL]	MIC S. a. 29213 [4, 13] [µg/mL]	MIC E. f. 29212 [5, 19] [µg/mL]	MIC S. a. 76 [7, 16] [µg/mL]	ED50 [6, 15] [mg/kg]	also measured
Nc1nnc(SCc2cnccc2SC2=C(C(=O)O)N3C(=O)[C@@H](NC(=O)/C(=N\O)c4nc(N)sc4Cl)[C@H]3SC2)s1 [Compound 26]							0.06 (≈ 0.0912 µM)	1 (≈ 1.52 µM)	0.5 (≈ 0.76 µM)	0.25 (≈ 0.38 µM)	0.25 (≈ 0.38 µM)	2 (≈ 3.04 µM)		ED50, mg/kg (95% C.I.) [6, 15]: 0.38 (01-0.7) mg/kg; HSB, human serum binding [8, 17]: >99%
Nc1nc(/C(=N/O)C(=O)N[C@@H]2C(=O)N3C(C(=O)O)=C(Sc4ccncc4CSCCNC=O)CS[C@H]23)c(Cl)s1 [Compound 27]							0.25 (≈ 0.397 µM)	2 (≈ 3.17 µM)	1 (≈ 1.59 µM)	0.25 (≈ 0.397 µM)	0.25 (≈ 0.397 µM)	4 (≈ 6.35 µM)		ED50, mg/kg (95% C.I.) [6, 15]: 2.27 (1.0-5.5) mg/kg; HSB, human serum binding [8]: 94%
Cc1nnsc1SC1=C(C(=O)O)N2C(=O)[C@@H](NC(=O)C(=NO)c3nc(N)sc3Cl)C2SC1 (stereo partly drawn) [Compound 34, (7R)-7-[2-(2-Amino-5-chlorothiazol-4-yl)-2-hydroxyiminoacetylamino]-3-(4-methyl-[1,2,3]thiadiazol-5-ylsulfanyl)-8-oxo-5-thia-1-aza-bicyclo[4.2.0]oct-2-ene-2-carboxylic acid]	0.125 (≈ 0.234 µM)	2 (≈ 3.75 µM)	2 (≈ 3.75 µM)	0.125 (≈ 0.234 µM)	0.25 (≈ 0.468 µM)	2 (≈ 3.75 µM)								HSB*, human serum binding calculated using serum effect on MIC [9]: — (98%)
Nc1nc(/C(=N/O)C(=O)N[C@@H]2C(=O)N3C(C(=O)O)=C(Sc4cccc5nncn45)CS[C@H]23)c(Cl)s1 [Compound 35]							0.25 (≈ 0.452 µM)	4 (≈ 7.23 µM)	4 (≈ 7.23 µM)	0.5 (≈ 0.904 µM)	0.25 (≈ 0.452 µM)	4 (≈ 7.23 µM)		HSB*, human serum binding calculated using serum effect on MIC [9]: — (88%)
Nc1nc(C(=NO)C(=O)N[C@@H]2C(=O)N3C(C(=O)O)=C(Sc4cnns4)CSC23)ns1 (stereo partly drawn) [Compound 39, (7R)-7-[2-(5-Amino-[1,2,4]thiadiazol-3-yl)-2-hydroxyimino-acetylamino]-8-oxo-3-([1,2,3]thiadiazol-5-ylsulfanyl)-5-thia-1-aza-bicyclo[4.2.0]oct-2-ene-2-carboxylic acid]	0.125 (≈ 0.257 µM)	8 (≈ 16.4 µM)	2 (≈ 4.11 µM)	0.125 (≈ 0.257 µM)	1 (≈ 2.06 µM)	8 (≈ 16.4 µM)								HSB*, human serum binding calculated using serum effect on MIC [9]: — (94%)
C[C@@H](O)[C@H]1C(=O)N2C(C(=O)O)=C(SCCN=CN)C[C@H]12 [Imipenem, reference compound]	0.25 (≈ 0.835 µM)	16 (≈ 53.4 µM)	4 (≈ 13.4 µM)	< 0.02	1 (≈ 3.34 µM)	32 (≈ 107 µM)							0.15	
CN[C@H](CC(C)C)C(=O)N[C@H]1C(=O)N[C@@H](CC(N)=O)C(=O)N[C@H]2C(=O)N[C@H]3C(=O)N[C@H](C(=O)N[C@H](C(=O)O)c4cc(O)cc(O)c4-c4cc3ccc4O)[C@H](O)c3ccc(c(Cl)c3)Oc3cc2cc(c3O[C@@H]2O[C@H](CO)[C@@H](O)[C@H](O)[C@H]2O[C@H]2C[C@](C)(N)[C@H](O)[C@H](C)O2)Oc2ccc(cc2Cl)[C@H]1O [Vancomycin, reference compound]														MIC ([1]; Staphylococcus aureus, MSSA): 0.5 µg/mL (≈ 0.345 µM); MIC ([2]; Staphylococcus aureus, MRSA): 1 µg/mL (≈ 0.69 µM); MIC ([3]; Enterococcus faecium, ATCC35667, read-out: MIC E. f. 35667): 0.25 µg/mL (≈ 0.173 µM); MIC ([4]; Staphylococcus aureus): 0.5 µg/mL (≈ 0.345 µM); MIC ([5]; Enterococcus faecalis, ATCC29212, read-out: MIC E. f. 29212): 1 µg/mL (≈ 0.69 µM); ED50 [6]: 2.1 mg/kg; MIC ([7]; Staphylococcus aureus, MRSA): 0.5 µg/mL (≈ 0.345 µM)

The next lines start with results.

MIC [1, 10] [µg/mL]	MIC [2, 11] [µg/mL]	MIC [3, 12] [µg/mL]	MIC [4, 13] [µg/mL]	MIC [5, 14] [µg/mL]	MIC [7, 16] [µg/mL]	MIC S. a. Smith [1, 10] [µg/mL]	MIC S. a. COL [2, 11] [µg/mL]	MIC E. f. 35667 [3, 18] [µg/mL]	MIC S. a. 29213 [4, 13] [µg/mL]	MIC E. f. 29212 [5, 19] [µg/mL]	MIC S. a. 76 [7, 16] [µg/mL]	Structure (SMILES)	ED50 [6, 15] [mg/kg]	also measured
0.5 (≈ 0.817 µM)	2 (≈ 3.27 µM)	4 (≈ 6.54 µM)	0.5 (≈ 0.817 µM)	2 (≈ 3.27 µM)	4 (≈ 6.54 µM)							Nc1nc(/C(=N/OC2CCCC2)C(=O)N[C@@H]2C(=O)N3C(C(=O)O)=C(Sc4ccnn4-c4ccccc4)CS[C@H]23)cs1 [Compound 13]	> 10	
	2 (≈ 3.26 µM)	4 (≈ 6.52 µM)	0.5 (≈ 0.815 µM)	2 (≈ 3.26 µM)	4 (≈ 6.52 µM)							CCC(CC)O/N=C(\C(=O)N[C@@H]1C(=O)N2C(C(=O)O)=C(Sc3ccnn3-c3ccccc3)CS[C@H]12)c1csc(N)n1 [Compound 17]	> 10	
0.5 (≈ 0.837 µM)	4 (≈ 6.69 µM)	16 (≈ 26.8 µM)	0.5 (≈ 0.837 µM)	16 (≈ 26.8 µM)	8 (≈ 13.4 µM)							Nc1nc(/C(=N/OCC2CC2)C(=O)N[C@@H]2C(=O)N3C(C(=O)O)=C(Sc4ccnn4-c4ccccc4)CS[C@H]23)cs1 [Compound 19]	> 10	
0.25 (≈ 0.487 µM)	2 (≈ 3.9 µM)	2 (≈ 3.9 µM)	0.25 (≈ 0.487 µM)	0.5 (≈ 0.975 µM)	2 (≈ 3.9 µM)							Nc1nc(/C(=N/O)C(=O)N[C@@H]2C(=O)N3C(C(=O)O)=C(Sc4ccncc4)CS[C@H]23)c(Cl)s1 [Compound 21]	3.6	HSB, human serum binding [8, 17]: 98%
						0.25 (≈ 0.393 µM)	1 (≈ 1.57 µM)	0.25 (≈ 0.393 µM)	0.25 (≈ 0.393 µM)	0.125 (≈ 0.196 µM)	2 (≈ 3.14 µM)	Nc1nc(/C(=N/O)C(=O)N[C@@H]2C(=O)N3C(C(=O)O)=C(Sc4ccncc4CSc4ccncc4)CS[C@H]23)c(Cl)s1 [Compound 25]		ED50, mg/kg (95% C.I.) [6, 15]: >5 mg/kg; HSB, human serum binding [8]: >99%
0.125 (≈ 0.23 µM)	2 (≈ 3.68 µM)	1 (≈ 1.84 µM)	0.5 (≈ 0.921 µM)	0.25 (≈ 0.46 µM)	2 (≈ 3.68 µM)							Nc1nc(/C(=N/O)C(=O)N[C@@H]2C(=O)N3C(C(=O)O)=C(Sc4ccncc4CO)CS[C@H]23)c(Cl)s1 [Compound 28]		HSB, human serum binding [8, 17]: >99%
						0.25 (≈ 0.384 µM)	1 (≈ 1.54 µM)	0.5 (≈ 0.768 µM)	0.125 (≈ 0.192 µM)	0.125 (≈ 0.192 µM)	2 (≈ 3.07 µM)	Nc1nc(/C(=N/O)C(=O)N[C@@H]2C(=O)N3C(C(=O)O)=C(Sc4ccncc4CSc4cccnc4N)CS[C@H]23)c(Cl)s1 [Compound 29]		ED50, mg/kg (95% C.I.) [6, 15]: >5 mg/kg
0.06 (≈ 0.115 µM)	0.5 (≈ 0.962 µM)	0.5 (≈ 0.962 µM)	< 0.06	0.125 (≈ 0.24 µM)	1 (≈ 1.92 µM)							Nc1nc(C(=NO)C(=O)N[C@@H]2C(=O)N3C(C(=O)O)=C(Sc4cnns4)CSC23)c(Cl)s1 (stereo partly drawn) [Compound 43, (7R)-7-[2-(2-Amino-5-chlorothiazol-4-yl)-2-hydroxyiminoacetylamino]-8-oxo-3-([1,2,3]thiadiazol-5-ylsulfanyl)-5-thia-1-aza-bicyclo[4.2.0]oct-2-ene-2-carboxylic acid]		HSB, human serum binding [8, 17]: 96% (−)
